The text below walks through data of US11510875B2, “Adjuvant formulations comprising TLR4 agonists and methods of using the same” (priority 2012, dated 2022).

Experiment [1] has as its system PfCelTOS. The experiment is classed as in vivo, Plasmodium falciparum. Conditions: BALB/c mice; SE dose 0.5%-2% experiment; GLA- or Montanide-containing vaccines.
The subject of experiment [2] is PfCelTOS. Kind of experiment: Antibody endpoint titers (IgG, IgG1, IgG2a) after immunization with PfCelTOS vaccine compositions. Conditions: BALB/c mice; SE dose 0.02%-2% experiment; GLA (SE or AF) compared to same vaccine composition without GLA.
Description: On the day of immunization, the emulsion was diluted with PBS to the specified oil concentrations and mixed with antigen and GLA-AF (where applicable). […] Throughout the manuscript the emulsion dose is referred to as the % v/v of oil in the final vaccine formulation; the ratio of oil to emulsifier is kept constant at all doses.
Endpoint titer was determined using Prism (GraphPad Software, La Jolla, Calif.) following a sigmoidal fit (variable slope) of the values determined at dilution, with the endpoint titer corresponding to a cutoff value (C) determined as described previously [10] with C=X+SDf, where X is the average and SD is the standard deviation of the negative sera control plate, and f is the multiplier at the 99.9% confidence level. A cutoff value of 0.1 OD was assigned if the cutoff value as determined above was less than 0.1 OD. On rare occasions, individual plate wells registered an abnormally high reading near the highest dilutions. These were excluded from the sigmoidal fit by employing the Grubb's test on the suspect value, comparing to the 4 dilutions surrounding the dilution in question at the 99% confidence level [11].
BALB/c mice were immunized 3 times with PfCelTOS vaccine compositions with 3 weeks between injections.

Consider glucopyranosyl lipid adjuvant [GLA], for which, in the experiment with PfCelTOS [1], the antibody-secreting plasma cells result was “Higher numbers”. The IgG2a response entry in the experiment with PfCelTOS [2] is recorded as “stronger”.
